# From patent US20260285850A1, “SUBSTITUTED OXAZOLIDINONES AND IMIDAZOLINONES AS HERBICIDES” (FMC CORPORATION, priority 2023, published 2026)
# Columns and labels:
# Format in all cases: in vivo
# [1] = system: horseweed (Erigeron canadensis); test: Test A postemergence application, visual injury rating 0-100
# Outline: (§1)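 Compounds formulated in a non-phytotoxic solvent with surfactant are sprayed onto soil of freshly planted loam-sand pots ahead of emergence, or onto emerged plants 2-10 cm tall. After a 10-day greenhouse period, each species is scored visually for injury against untreated controls.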
# [2] = system: barnyardgrass (Echinochloa crus-galli); test: as above
# Outline: as §1
# [3] = system: palmer (palmer amaranth, palmer pigweed, Amaranthus palmeri); test: as above
# Outline: as §1
# [4] = system: galium (catchweed bedstraw, Galium aparine); test: as above
# Outline: as §1
# [5] = system: green foxtail (Setaria viridis); test: as above
# Outline: as §1
# [6] = system: oat, wild (wild oat, Avena fatua); test: as above
# Outline: as §1
# soybean (Glycine max) [7] = test: as above
# Outline: as §1
# [8] = system: ryegrass, Italian (italian ryegrass, Lolium multiflorum); test: as above
# Outline: as §1
# corn (Zea mays) [9] = test: as above
# Outline: as §1
# kochia (Bassia scoparia) [10] = test: as above
# Outline: as §1
# [11] = system: ragweed (common ragweed, Ambrosia artemisiifolia); test: as above
# Outline: as §1
# [12] = system: blackgrass (Alopecurus myosuroides); test: as above
# Outline: as §1
# [13] = system: wheat (Triticum aestivum); test: as above
# Outline: as §1
# [14] = system: sedge, umbrella (small-flower umbrella sedge, Cyperus difformis); test: Test B flooded paddy test, visual plant response rating 0-100; details: 250 g ai/ha, Flood, applied to paddy water, evaluated after 13 days
# Outline: (§2)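 Plants were grown to the 2-leaf stage, then pots were flooded to 3 cm above the soil and test compounds were applied directly into the paddy water. Water depth was held there throughout; after 13 days in a greenhouse, injury was scored visually against untreated controls.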
# [15] = system: ducksalad (Heteranthera limosa); test: as above; details: 250 g ai/ha, Flood, applied to paddy water, evaluated after 13 days
# Outline: as §2
# [16] = system: barnyardgrass (Echinochloa crusgalli); test: as above; details: 250 g ai/ha, Flood, applied to paddy water, evaluated after 13 days
# Outline: as §2
# rice (Oryza sativa) = test: as above; details: 250 g ai/ha, Flood, applied to paddy water, evaluated after 13 days
# Outline: as §2
# [17] = system: barnyardgrass (Echinochloa crus-galli); test: Test A preemergence soil spray, visual injury rating 0-100; details: 10 days
# Outline: as §1
# [18] = system: palmer (palmer amaranth, palmer pigweed, Amaranthus palmeri); test: as above; details: 10 days
# Outline: as §1
# [19] = system: green foxtail (Setaria viridis); test: as above; details: 10 days
# Outline: as §1
# [20] = system: oat, wild (wild oat, Avena fatua); test: as above; details: 10 days
# Outline: as §1
# soybean (Glycine max) [21] = test: as above; details: 10 days
# Outline: as §1
# [22] = system: ryegrass, Italian (italian ryegrass, Lolium multiflorum); test: as above; details: 10 days
# Outline: as §1
# corn (Zea mays) [23] = test: as above; details: 10 days
# Outline: as §1
# kochia (Bassia scoparia) [24] = test: as above; details: 10 days
# Outline: as §1
# [25] = system: ragweed (common ragweed, Ambrosia artemisiifolia); test: as above; details: 10 days
# Outline: as §1
# [26] = system: blackgrass (Alopecurus myosuroides); test: as above; details: 10 days
# Outline: as §1
# [27] = system: wheat (Triticum aestivum); test: as above; details: 10 days
# Outline: as §1
# [28] = 62 g ai/ha, postemergence, 10 days, 0 = no effect, 100 = complete control
# [29] = Postemergence, 16 g ai/ha, greenhouse 10 days, 0 no effect, 100 complete control
# [30] = 62 g ai/ha, 0 = no effect, 100 = complete control
compound,measurement,setting,value
CC1(C(=O)NC2C=CC(C(=O)O)C2)CN(c2cc(Cl)c(F)c(Cl)c2)C(=O)O1 (stereo not shown) [Compound 124],Horseweed plant response rating (0-100),[1]; [28],60
same,Horseweed plant response rating (0 to 100 scale),[1]; [29],0
same,Barnyardgrass plant response rating (0-100),[2]; [28],90
same,Barnyardgrass plant response rating (0 to 100 scale),[2]; [29],70
same,"Pigweed, Palmer plant response rating (0-100)",[3]; [28],70
same,"Pigweed, Palmer plant response rating (0 to 100 scale)",[3]; [29],50
same,Galium plant response rating (0-100),[4]; [28],90
same,Galium plant response rating (0 to 100 scale),[4]; [29],70
same,"Foxtail, Green plant response rating (0-100)",[5]; [28],80
same,"Foxtail, Green plant response rating (0 to 100 scale)",[5]; [29],10
same,"Oat, Wild plant response rating (0-100)",[6]; [28],90
same,"Oat, Wild plant response rating (0 to 100 scale)",[6]; [29],30
same,Soybean plant response rating (0-100),soybean (Glycine max) [7]; [28],70
same,Soybean plant response rating (0 to 100 scale),soybean (Glycine max) [7]; [29],40
same,"Ryegrass, Italian plant response rating (0-100)",[8]; [28],90
same,"Ryegrass, Italian plant response rating (0 to 100 scale)",[8]; [29],30
same,Corn plant response rating (0-100),corn (Zea mays) [9]; [28],100
same,Corn plant response rating (0 to 100 scale),corn (Zea mays) [9]; [29],60
same,Kochia plant response rating (0-100),kochia (Bassia scoparia) [10]; [28],90
same,Kochia plant response rating (0 to 100 scale),kochia (Bassia scoparia) [10]; [29],30
same,Ragweed plant response rating (0-100),[11]; [28],20
same,Ragweed plant response rating (0 to 100 scale),[11]; [29],0
same,Blackgrass plant response rating (0-100),[12]; [28],90
same,Blackgrass plant response rating (0 to 100 scale),[12]; [29],80
same,Wheat plant response rating (0-100),[13]; [28],90
same,Wheat plant response rating (0 to 100 scale),[13]; [29],80
same,"Plant response rating, Sedge, Umbrella (0 to 100 scale, 0 is no effect and 100 is complete control)",[14],30
same,"Plant response rating, Ducksalad (0 to 100 scale, 0 is no effect and 100 is complete control)",[15],85
same,"Plant response rating, Barnyardgrass (0 to 100 scale, 0 is no effect and 100 is complete control)",[16],10
same,"Plant response rating, Rice (0 to 100 scale, 0 is no effect and 100 is complete control)",rice (Oryza sativa),15
same,Barnyardgrass plant response rating,"[17]; 16 g ai/ha, 0 to 100 scale",0
same,Barnyardgrass plant response rating (0-100),[17]; [30],40
same,"Pigweed, Palmer plant response rating","[18]; 16 g ai/ha, 0 to 100 scale",0
same,"Pigweed, Palmer plant response rating (0-100)",[18]; [30],30
same,"Foxtail, Green plant response rating","[19]; 16 g ai/ha, 0 to 100 scale",0
same,"Foxtail, Green plant response rating (0-100)",[19]; [30],80
same,"Oat, Wild plant response rating","[20]; 16 g ai/ha, 0 to 100 scale",0
same,"Oat, Wild plant response rating (0-100)",[20]; [30],30
same,Soybean plant response rating,"soybean (Glycine max) [21]; 16 g ai/ha, 0 to 100 scale",0
same,Soybean plant response rating (0-100),soybean (Glycine max) [21]; [30],0
same,"Ryegrass, Italian plant response rating","[22]; 16 g ai/ha, 0 to 100 scale",0
same,"Ryegrass, Italian plant response rating (0-100)",[22]; [30],70
same,Corn plant response rating,"corn (Zea mays) [23]; 16 g ai/ha, 0 to 100 scale",0
same,Corn plant response rating (0-100),corn (Zea mays) [23]; [30],50
same,Kochia plant response rating,"kochia (Bassia scoparia) [24]; 16 g ai/ha, 0 to 100 scale",0
same,Kochia plant response rating (0-100),kochia (Bassia scoparia) [24]; [30],10
same,Ragweed plant response rating,"[25]; 16 g ai/ha, 0 to 100 scale",0
same,Ragweed plant response rating (0-100),[25]; [30],0
same,Blackgrass plant response rating,"[26]; 16 g ai/ha, 0 to 100 scale",20
same,Blackgrass plant response rating (0-100),[26]; [30],30
same,Wheat plant response rating,"[27]; 16 g ai/ha, 0 to 100 scale",20
same,Wheat plant response rating (0-100),[27]; [30],90
